Results from PubChem BioAssay AID248 (DTP/NCI, 2004).
Where “and” joins values, the source holds several entries; their conditions need not be identical. Identical values can stand only once. Inconclusive results and toxic doses are left out. No stated cut-off is given here; in the data, active means T/C of 150% or more; inactive means T/C below 125%. Numbered stars: 1 amine (or outer) side, 2 acyl side, 3 side chain; on linkers, the order of the positions; unused ones are H or OH. Bridge positions count the residues as written; N and C are the ends. Square brackets hold non-standard residues; d marks the D form. Peptide text beside a SMILES is read from it. I, II: the chains in the order shown. Actinocin(1to9) = Cc1c2oc3c(C)ccc(C(=O)[*:2])c3nc-2c(C(=O)[*:1])c(N)c1=O; X2 = CC(=O)OC1CC(C)N([*:1])C1C(=O)[*:2]; X1 = CC1CC(=O)C(C(=O)[*:2])N1[*:1]; NMeV = CN[CH](C(=O)O)C(C)C; NMeA = CN[CH](C)C(=O)O; Sar = CNCC(=O)O

Tested on: L1210 leukemia ip in BDF1 mice, survival T/C
Test: NCI In Vivo Anticancer Drug Screen. Data for tumor model L1210 Leukemia (intraperitoneal) in B6D2F1 (BDF1) mice
Conditions: endpoint: mean survival time, higher = longer survival
Procedure, shortened: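 Antitumor effect is assessed in tumor-bearing animals. Survival in the compound arm is compared with a vehicle-dosed control arm and expressed as their quotient.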

[1] = dose: 100.0 mg/kg/injection, schedule: Q04DX003 (ip), vehicle: saline
[2] = dose: 200.0 mg/kg/injection, schedule: Q04DX003 (ip), vehicle: saline
[3] = dose: 50.0 mg/kg/injection, schedule: Q01DX001 (ip), vehicle: carboxymethylcellulose (CMC)
[4] = dose: 100.0 mg/kg/injection, schedule: Q01DX001 (ip), vehicle: carboxymethylcellulose (CMC)
[5] = dose: 100.0 mg/kg/injection, schedule: Q01DX009 (ip), vehicle: Klucel (hydroxypropylcellulose) (HPC)
[6] = dose: 100.0 mg/kg/injection, schedule: Q04DX003 (ip), vehicle: Klucel (hydroxypropylcellulose) (HPC)
[7] = dose: 200.0 mg/kg/injection, schedule: Q01DX001 (ip), vehicle: carboxymethylcellulose (CMC)
[8] = dose: 200.0 mg/kg/injection, schedule: Q04DX003 (ip), vehicle: Klucel (hydroxypropylcellulose) (HPC)
[9] = dose: 400.0 mg/kg/injection, schedule: Q01DX001 (ip), vehicle: carboxymethylcellulose (CMC)
[10] = dose: 400.0 mg/kg/injection, schedule: Q01DX009 (ip), vehicle: Klucel (hydroxypropylcellulose) (HPC)
[11] = dose: 400.0 mg/kg/injection, schedule: Q04DX003 (ip), vehicle: Klucel (hydroxypropylcellulose) (HPC)
[12] = dose: 200.0 mg/kg/injection, schedule: Q01DX009 (ip), vehicle: Klucel (hydroxypropylcellulose) (HPC)
[13] = dose: 50.0 mg/kg/injection, schedule: Q01DX009 (ip), vehicle: saline with Tween-80
[14] = dose: 100.0 mg/kg/injection, schedule: Q01DX009 (ip), vehicle: saline with Tween-80
[15] = dose: 100.0 mg/kg/injection, schedule: Q04DX003 (ip), vehicle: saline with Tween-80
[16] = dose: 200.0 mg/kg/injection, schedule: Q04DX003 (ip), vehicle: saline with Tween-80

Measured: T/C

CCN(C)c1cc2c3c(c1)CCCN3CCC2
inactive: dose: 5.0 mg/kg/injection, schedule: Q01DX009 (ip), vehicle: saline 103 % of control

O=C1/C(=C/c2ccccc2)CCC/C1=C\c1ccccc1
inactive: dose: 100.0 mg/kg/injection, schedule: Q04DX002 (ip), vehicle: saline with Tween-80 92 % of control | dose: 200.0 mg/kg/injection, schedule: Q04DX002 (ip), vehicle: saline with Tween-80 92 % of control | dose: 400.0 mg/kg/injection, schedule: Q04DX002 (ip), vehicle: saline with Tween-80 95 % of control

C=CC1C[N+]2(SS(=O)(=O)O)CCC1CC2C(O)c1ccnc2ccc(OC)cc12 (stereo not given)
inactive: dose: 18.8 mg/kg/injection, schedule: Q01DX009 (ip), vehicle: saline 91 % of control | dose: 37.5 mg/kg/injection, schedule: Q01DX009 (ip), vehicle: saline 94 % of control | dose: 75.0 mg/kg/injection, schedule: Q01DX009 (ip), vehicle: saline 88 % of control

CC(=O)Nn1c(=O)c(=O)oc2ccccc21
inactive: dose: 75.0 mg/kg/injection, schedule: Q01DX001 (ip), vehicle: acetone 94 % of control | dose: 150.0 mg/kg/injection, schedule: Q01DX001 (ip), vehicle: acetone 93 % of control | dose: 300.0 mg/kg/injection, schedule: Q01DX001 (ip), vehicle: acetone 96 % of control

c1ccc(CN2CCC(N3CCCC3)CC2)cc1
inactive: dose: 50.0 mg/kg/injection, schedule: Q01DX009 (ip), vehicle: saline 101 % of control | dose: 100.0 mg/kg/injection, schedule: Q01DX009 (ip), vehicle: saline 95 % of control | [1] 109 % of control | dose: 200.0 mg/kg/injection, schedule: Q01DX009 (ip), vehicle: saline 94 % of control | [2] 101 % of control

CCOc1ccccc1NC1=C(OC)C(=O)C(Nc2ccccc2OCC)=C(OC)C1=O
inactive: [3] 97 % of control | [4] 103 % of control | [5] 95 % of control | [6] 98 % of control | [7] 101 % of control | [8] 90 % of control | [9] 113 % of control | [10] 90 % of control | [11] 101 % of control

CCCCCCCCCCCC(=O)Nc1cc(C)ccc1N=Nc1ccc(C)cc1
inactive: dose: 50.0 mg/kg/injection, schedule: Q01DX009 (ip), vehicle: Klucel (hydroxypropylcellulose) (HPC) 86 % of control | [5] 95 % of control | [12] 88 % of control | [10] 90 % of control

CC(=O)OC1CC(C)N2C(=O)C(C(C)C)NC(=O)C(NC(=O)c3ccc(C)c4oc5c(C)c(=O)c(N)c(C(=O)NC6C(=O)NC(C(C)C)C(=O)N7C(C)CC(=O)C7C(=O)N(C)CC(=O)N(C)C(C)C(=O)OC6C)c-5nc34)C(C)OC(=O)C(C(C)C)N(C)C(=O)CN(C)C(=O)C12 (stereo not given) (I: TV[X1][Sar][NMeA] / II: TV[X2][Sar][NMeV]; ester I:1-I:C, II:1-II:C; linker I:N-II:N via Actinocin(1to9); configuration not given here)
inactive: dose: 0.1 mg/kg/injection, schedule: Q01DX009 (ip), vehicle: saline + alcohol 101 % of control | dose: 0.2 mg/kg/injection, schedule: Q01DX009 (ip), vehicle: saline + alcohol 105 % of control | dose: 0.3 mg/kg/injection, schedule: Q04DX003 (ip), vehicle: saline + alcohol 97 % of control | dose: 0.4 mg/kg/injection, schedule: Q01DX009 (ip), vehicle: saline + alcohol 110 % of control | dose: 0.6 mg/kg/injection, schedule: Q04DX003 (ip), vehicle: saline + alcohol 108 % of control | dose: 0.8 mg/kg/injection, schedule: Q01DX001 (ip), vehicle: saline + alcohol 97 % of control | dose: 0.8 mg/kg/injection, schedule: Q01DX009 (ip), vehicle: saline + alcohol 116 % of control | dose: 1.2 mg/kg/injection, schedule: Q04DX003 (ip), vehicle: saline + alcohol 110 % of control | dose: 1.6 mg/kg/injection, schedule: Q01DX001 (ip), vehicle: saline + alcohol 102 % of control | dose: 1.6 mg/kg/injection, schedule: Q01DX009 (ip), vehicle: saline + alcohol 122 % of control | dose: 2.4 mg/kg/injection, schedule: Q04DX003 (ip), vehicle: saline + alcohol 112 % of control | dose: 3.2 mg/kg/injection, schedule: Q01DX001 (ip), vehicle: saline + alcohol 106 % of control | dose: 4.8 mg/kg/injection, schedule: Q04DX003 (ip), vehicle: saline + alcohol 121 % of control | dose: 6.4 mg/kg/injection, schedule: Q01DX001 (ip), vehicle: saline + alcohol 122 % of control

CCCCC(CC)CCC(C)O (stereo not given)
inactive: [13] 96 % of control | [14] 94 % of control | [15] 108 % of control | [16] 95 % of control

CCCCCCCCCC(=O)Nc1ccc(C)cc1C
inactive: dose: 100.0 mg/kg/injection, schedule: Q04DX002 (ip), vehicle: Klucel (hydroxypropylcellulose) (HPC) 97 % of control | dose: 200.0 mg/kg/injection, schedule: Q04DX002 (ip), vehicle: Klucel (hydroxypropylcellulose) (HPC) 101 % of control | dose: 400.0 mg/kg/injection, schedule: Q04DX002 (ip), vehicle: Klucel (hydroxypropylcellulose) (HPC) 90 % of control

CN(C)c1ccc(/C=C\c2ccnc3ccccc23)cc1
inactive: dose: 10.0 mg/kg/injection, schedule: Q01DX Z (ip), vehicle: methylcellulose (MC) 98 % of control | dose: 18.0 mg/kg/injection, schedule: Q01DX010 (ip), vehicle: saline 93 % of control and 102 % of control | dose: 27.0 mg/kg/injection, schedule: Q01DX010 (ip), vehicle: saline 95 % of control and 102 % of control | dose: 40.0 mg/kg/injection, schedule: Q01DX010 (ip), vehicle: saline 101 % of control and 91 % of control | [3] 106 % of control | dose: 60.0 mg/kg/injection, schedule: Q01DX010 (ip), vehicle: saline 86 % of control and 90 % of control | [4] 97 % of control | [7] 89 % of control | [9] 101 % of control

O=C1C=CC(=Nc2ccc3c(c2)C(Br)c2ccccc2-3)O1 (stereo not given)
inactive: dose: 3.12 mg/kg/injection, schedule: Q04DX003 (ip), vehicle: saline 100 % of control | dose: 4.5 mg/kg/injection, schedule: Q01DX009 (ip), vehicle: saline 102 % of control | dose: 6.25 mg/kg/injection, schedule: Q04DX003 (ip), vehicle: saline 105 % of control | dose: 9.0 mg/kg/injection, schedule: Q01DX009 (ip), vehicle: saline 95 % of control | dose: 12.5 mg/kg/injection, schedule: Q01DX001 (ip), vehicle: acetone 100 % of control | dose: 12.5 mg/kg/injection, schedule: Q04DX003 (ip), vehicle: saline 103 % of control | dose: 18.0 mg/kg/injection, schedule: Q04DX003 (ip), vehicle: saline 98 % of control

C=Cc1ccc(Oc2ccccc2)cc1
inactive: [13] 98 % of control | [14] 112 % of control

CC(C)(C)O.[Zr]
inactive: dose: 25.0 mg/kg/injection, schedule: Q01DX009 (ip), vehicle: other 108 % of control | dose: 50.0 mg/kg/injection, schedule: Q01DX009 (ip), vehicle: other 97 % of control | dose: 100.0 mg/kg/injection, schedule: Q01DX009 (ip), vehicle: other 90 % of control | [1] 96 % of control | dose: 200.0 mg/kg/injection, schedule: Q01DX009 (ip), vehicle: other 103 % of control | [2] 98 % of control | dose: 400.0 mg/kg/injection, schedule: Q04DX003 (ip), vehicle: saline 94 % of control

Clc1ccc(Sc2ncnc3nc[nH]c23)cc1
inactive: [15] 102 % of control | [16] 100 % of control | dose: 400.0 mg/kg/injection, schedule: Q04DX003 (ip), vehicle: saline with Tween-80 105 % of control

CCOC(=O)CC(C)NC1CCCCC1 (stereo not given)
inactive: dose: 100.0 mg/kg/injection, schedule: Q01DX Z (ip), vehicle: methylcellulose (MC) 92 % of control | dose: 200.0 mg/kg/injection, schedule: Q01DX Z (ip), vehicle: methylcellulose (MC) 92 % of control

Cc1cccc(NC(=O)Nc2cccc(Cl)c2)c1C
inactive: [5] 91 % of control | [6] 90 % of control | [12] 100 % of control | [8] 90 % of control | [10] 93 % of control | [11] 89 % of control
